Reference: patent publication US20240269104A1, “METHOD FOR TREATING PARKINSON'S DISEASE” (Olatec Therapeutics, Inc., priority 2021, published 2024)

Legend:
[1] = brain levels of dapansutrile after fortified feed pellets; assay type: in vivo, mice; settings: oral
Protocol: Mice were treated with dapansutrile by ad libitum consumption of dapansutrile-fortified feed pellets (7.5 g/kg) for 21 days. Control mice received a matching unfortified diet without dapansutrile. Mice were monitored during the study for any changes in physiological parameters, including irregular weight gain or loss as well as changes in body temperature. On day 21, mice were sacrificed, and brains were isolated. Dapansutrile measurements in the whole brain homogenates were performed at Syneos Health (Princeton, NJ). Five mice per group were assessed. […] The ability of dapansutrile to cross BBB even when delivered orally provides a potential advance for the treatment of chronic patients like PD.

IL-6 [2] = assay: IL-6 in LPS-stimulated cultured splenocytes from MPTP-injected mice; assay type: in vivo; settings: mice treated 200 mg/kg for seven days; splenocytes cultured with LPS, supernatant
Protocol: (§1) Seven days after MPTP-acute administration, peripheral blood and spleen were isolated from each mouse, and hematological changes in the peripheral blood and cytokine production in the spleen were evaluated. […] White blood cells, lymphocytes, monocytes, and granulocytes were measured from the peripheral blood using a HemaTrue cell counter (Heska, Loveland, CO). Spleens were isolated and mechanically passed through a 70 μm cell strainer (ThermoFisher) in PBS. Cells were plated in a 96-well plate at a concentration of 200,000 cells/well in RPMI medium (Coring, New York, NY) with 10% FBS. After that, cells were stimulated with LPS at 1 μg/ml and 5 μg/ml. RPMI medium was used as control. After 72 hours, supernatant was isolated to measure the levels of IL-6. Cells were lysed with RIPA buffer (ThermoFisher) supplemented with protease inhibitor (ThermoFisher) to measure IL-1α levels. In both cases, 5-6 mice per group were used.

TREM2 = TREM2 immunoblotting in the striatum after MPTP-acute administration; assay type: in vivo, mice; settings: 200 mg/kg once each day; day 4 after MPTP-acute
Protocol: In this example, we measured the levels of […] (TREM2) after dapansutrile treatment. TREM2 may be a potential target for treating PD. For TREM2, mice were sacrificed at day 4 after MPTP-acute administration. The St was excised, and proteins were extracted and quantified as described in Example 9. 30 μg of protein per sample were resolved in a Mini-PROTEAN TGX 4-20% gradient gel (Bio-Rad, Hercules, CA) in 0.1% SDS running buffer (Bio-Rad). The gel was transferred to a […] nitrocellulose membrane (GE Healthcare, Chicago, IL). Membranes were blocked with 5% blocking buffer (Bio-Rad) in TBS 0.1% (v/v) Tween solution for one hour at room temperature. Samples were incubated overnight with primary antibody for mouse TREM2 (1:1000, Cell Signaling, Danvers, MA). Peroxidase-conjugated secondary antibody (Jackson ImmunoResearch, Philadelphia, PA) and chemiluminescence were used to detect the protein concentration. Conjugated antibody against β-actin (Santa Cruz Biotechnology, Dallas, TX) was used to normalize protein concentrations. Protein bands for monomeric and oligomeric forms of each individual mice were quantified using NIH ImageJ software. Four mice per group were used.

IL-6 [3] = assay: IL-6 in brain homogenates by ELISA after MPTP; assay type: in vivo, mice; settings: 200 mg/kg once each day; seven days after MPTP-acute
From the text: (§2) It has been reported that administration of MPTP induces the assembly of NLPR3 inflammasome in the brain. Mice were sacrificed after anesthesia by cervical dislocation at 4 and 7 days after MPTP administration. Brains were collected, and the striatum (St) and ventral midbrain (VM) areas of both hemispheres were excised and frozen in liquid nitrogen. Samples were homogenized in RIPA buffer (Thermo Fisher, Waltham, MA) supplemented with protease inhibitor (Thermo Fisher) using a TissueRuptor (Qiagen, Germantown, MD). Protein concentration was determined using a BCA Protein Assay Kit (Thermo Fisher) according to manufacturer's instructions. Samples were diluted to 2 mg/ml in the same extraction buffer.
(§3) Levels of IL-1β, IL-18, IL-6, and IL-17A from brain homogenates were measured by ELISA DuoSet kit (R&D Systems, Minneapolis, MN). ELISA kit for IL-1β detects 92-95% of the 17 kDa form and only 8-5% of the precursor form of this cytokine. 96-well plates (ThermoFisher Scientific) were coated with capture antibody. Samples were incubated for two hours at room temperature. Detection antibodies and streptavidin-HRP were added. TMB ELISA (cBioscience, San Diego, CA) was used as substrate solution. Results were measured in a microplate reader (Bio-Tek, Santa Clara, CA). Final values were normalized by the protein concentration of each sample. 4-5 mice per group were used for each cytokine.

IL-17A = IL-17A in brain homogenates by ELISA after MPTP; assay type: in vivo, mice; settings: 200 mg/kg once each day; seven days after MPTP-acute; MPTP+saline 58 pg/μg
From the text: as §2, §3

IL-18 = IL-18 in brain homogenates by ELISA after MPTP; assay type: in vivo, mice
Protocol: Mice were treated with dapansutrile or saline and injected with MPTP as described in Example 2.
At three days after MPTP, mice were sacrificed and levels of IL-18 in the brain were measured. Briefly, the brain was removed from the mouse and a piece of the striatum was homogenized. Levels of proteins were normalized to 2 mg/ml and IL-18 was measured using the mouse IL-18 ELISA from R and D Systems.
as §2, §3

IL-1α = IL-1α in LPS-stimulated cultured splenocytes from MPTP-injected mice; assay type: in vivo; settings: mice treated 200 mg/kg for seven days; splenocytes cultured with LPS, cell lysate
Protocol: as §1

[4] = fortified feed pellets, 21 days
[5] = 200 mg/kg once each day, four days after MPTP-acute

concentration at 21 days ([1]; mouse, brain (whole brain homogenate), fortified feed pellets 7.5 g/kg ad libitum, whole brain homogenates, read-out: dapansutrile level in the brain): 47000 ng/g
brain level relative to concentration required to inhibit the NLRP3 assembly [1, 4]: at least 30 times
crossing of the blood-brain barrier [1, 4]: readily crosses the BBB
SMILES: CS(=O)(=O)CCC#N [dapansutrile, 3-methanesulfonylpropionitrile]
IL-6 production by splenocytes (IL-6 [2]): restoring the effects of MPTP
levels of 35 kDa-glycosylated form of TREM2 in the striatum (TREM2): no changes
levels of nonglycosylated form of TREM2 (28 kDa) in the striatum (TREM2): significantly increased, reaching basal condition
levels of IL-6 in the ventral midbrain (VM) (IL-6 [3]): No effects were detected
reduction of levels of IL-6 in the striatum (St) (IL-6 [3]): 26%
levels of IL-17A in the ventral midbrain (VM) after treatment (IL-17A): 46 pg/µg
levels of IL-18 in the ventral midbrain (VM) (IL-18; [5]): no changes associated to dapansutrile
reduction in the levels of IL-18 in the striatum (St) versus MPTP mice treated with saline (IL-18; [5]): 15%
levels of IL-18 in the brain in comparison with mice treated with water (IL-18; 200 mg/kg oral gavage, striatum, three days after MPTP): reduced the levels of IL-18 in the brain
reduction of the level of intracellular IL-1α in splenocytes (IL-1α): 40%
